The source of these data is patent US20210301315A1, “METHODS FOR TREATING POLYMICROBIAL INFECTIONS” (priority 2017, published 2021).

The test system of one experiment is E. coli and K. oxytoca. The experiment is described as follows: P-AST species-pair interaction on antibiotic resistance (logistic regression, HSAP/UP). Type of experiment: cell-based, Escherichia coli; Klebsiella oxytoca. To be noted: E. coli and K. oxytoca together v. expected from each species alone (HSAP/UP). The procedure: (§1) The Pooled Antibiotic Sensitivity Test (P-AST) is permitting the organisms identified to grow in the presence of antibiotics and measuring the minimum concentration of antibiotic to inhibit growth. Antibiotic susceptibility testing is performed when at least a single organism within a pool of organisms reaches a certain threshold, (e.g., at least 3,000 cells/ml, at least 5,000 cells/ml, at least 10,000 cells/ml, etc.) and can grow in the presence of the antibiotic in the assay within the time of testing. (Note: 10,000 cells/ml is equivalent to 10,000 CFU/ml.) The present invention is not limited to a 10,000 cells/mL threshold. These pools of organism(s) are inoculated into growth medium then placed onto an antibiotic laden “spec plate” that is then incubated and analyzed for growth. The breakpoints are derived from the CLSI breakpoints.
(§2) P-AST was performed by aliquoting 1 mL of patient urine specimen into a 1.7 mL microcentrifuge tube. After centrifugation, the supernatant was aspirated and discarded, leaving approximately 100 or 50 μL (minimum volume left above pellet created from centrifugation) of patient sample in the microcentrifuge tube. […] Optical density of samples was then read on a DensiCHEK plate reader. […] A spectrophotometer (plate reader) is used to measure optical density of the samples in wells of antibiotics and inoculum in order to determine if there is growth in a well. […]

The test system of experiment [1] is E. coli and S. agalactiae. The experiment is described as above. Type of experiment: cell-based, Escherichia coli; Streptococcus agalactiae. The conditions noted are these: E. coli and S. agalactiae together v. expected from each species alone (HSAP/UP). On the procedure: as §1
(§3) P-AST was performed by aliquoting 1 mL of patient urine specimen into a 1.7 mL microcentrifuge tube. After centrifugation, the supernatant was aspirated and discarded, leaving approximately 100 or 50 μL (minimum volume left above pellet created from centrifugation) of patient sample in the microcentrifuge tube. One mL of Mueller Hinton Growth Media was then aliquoted into the patient sample in the microcentrifuge tube and the tubes were incubated at 35° C. in a non-CO2 incubator for 6 hours. Non-inoculated liquid MH-media is incubated as the negative control to confirm the media used is not contaminated. Those samples that reached a minimum threshold of 10,000 cells/mL were then diluted by aliquoting 0.5 mL of sample into a 50 mL conical tube containing Mueller Hinton Growth Media (in this example, the dilution was 1:60, e.g., 500 μL was added to 29.5 mL). 96-well plates pre-loaded with antibiotics were then inoculated with diluted samples and incubated along with control plates for 12-16 hours at 35° C. in a single layer. Optical density of samples was then read on a DensiCHEK plate reader. The DensiCHEK instrument is used to measure the concentration of turbid samples considered positive because PCR-ID result was >=10,000 cells/mL. The turbid samples were diluted/normalized to the same concentration and then added to a volume of liquid, e.g., 29.5 mL of liquid MH-media. A spectrophotometer (plate reader) is used to measure optical density of the samples in wells of antibiotics and inoculum in order to determine if there is growth in a well. The present invention is not limited to a concentration of 10,000 cells/mL.
(§4) Interactions between pairs of bacterial species were investigated using a logistic regression model to predict resistance in the presence of specific bacterial species. Bacterial species that tested positive in at least 30 samples were considered in the regression model: these 16 species were A. schaalii, A. urinae, A. omnicolens, CoNS, C. riegelii, E. faecalis, E. coli, K. oxytoca, K. pneumoniae, M. morganii, P. mirabilis, P. aeruginosa, S. aureus, S. agalactiae, U. urealyticum, VGS. Backward stepwise model selection was performed on the model with all main effects and all pairwise interactions using an enter significance level of α=0.10 and an exit significance level of α=0.05 to obtain the best fitting model. This model was used to predict resistance rates when a specific organism was present or when a specific pair of organisms were present.
(§5) Using the logistic regression model described above, the resistance rate for a pair of species was compared to the resistance rates for each species alone. […]

Experiment [2] concerns bacterial organisms present in patient urine sample. Description: Antibiotic Resistance (ABR) assay utilizing liquid growth medium. Type of experiment: cell-based. The conditions noted are these: for Blanked (OD reading): blanked with Na-Azide well; for Mean (OD reading): raw OD600 of well; for Result (Resistant/Sensitive): threshold OD600 of 0.065. On the procedure: Urine samples suitable for processing with this assay are collected, transported, and stored using BD Vacutainer tubes or other suitable leak-proof sterile containers. Urine samples may be held at room temperature for 48 hours before test results are compromised.
Antibiotic stocks are stored at 2-8° C. and protected from direct sunlight. Prepared antibiotic stock solutions were aliquoted into a 96-deep well plate (ThermoFisher Scientific) to form a 50× Antibiotic Source Plate and then diluted 1:5 to form a 10× Antibiotic Source Plate, as shown in FIG. 12 where each well is identified by antibiotic name and concentration (μg/mL; 10× final concentration). […] One well was assigned sodium azide to ensure no bacterial growth would be observed in that well.
Twenty microliters of each antibiotic solution were aliquoted into the pre-determined wells of a 96-well microplate (VIS 96/F-PS, Eppendorf) from the 10× Antibiotic Source Plate to create ABR testing plates for inoculation. These ABR testing plates were allowed to sit for up to 24 hours before use at 2-8° C. in the dark.
At the time of testing, urine samples were centrifuged to concentrate any bacterial cells and then mixed with liquid Mueller-Hinton medium and incubated for 6-16 hours at 37° C. After this initial incubation, the sample is diluted to 0.5-0.6 McF in saline and then 500 μl of that suspension was added to […] of Mueller-Hinton medium. One-hundred and eighty microliters of the diluted sample is then aliquoted to each well of the ABR microplate already containing 10× antibiotic solution, bringing all of the antibiotics to the desired final concentration. The plate is then sealed and incubated for 12-16 hours at 37° C.
After incubation, the plate was removed from the incubator and carefully uncovered and the OD600 was determined for each appropriate well by spectrophotometer. Five separate measurements were taken of each well on a plate and the mean OD600 measurement calculated for each well.
Controls are depicted in Table 10.
The raw data was then “blanked” using the measurement obtained from the Na-Azide well, as depicted in Table 14.
To determine whether bacterial organisms present in the patient samples were resistant or sensitive to a particular antibiotic at a certain concentration, blanked OD readings were compared to a threshold OD600 of 0.065 (Table 15). An OD measurement greater than or equal to this threshold was designated Resistant (R) meaning bacterial organisms present in patient sample were resistant to that particular antibiotic at that certain concentration. Any OD measurement less than this threshold was designated Sensitive (S) meaning bacterial organisms present in patient sample were sensitive to that particular antibiotic at that certain concentration.

Experiment [3] deals with bacteria detected in patient urine specimens. The experiment is described as follows: Pooled Antibiotic Susceptibility Testing (P-AST) of urine specimens, polymicrobial v. monomicrobial (logistic regression). Type of experiment: cell-based. The conditions noted are these: urine specimens, 95% confidence interval in parentheses.
Source text: The present invention describes Pooled Antibiotic Susceptibility Testing (P-AST), which involves simultaneously growing all detected bacteria together in the presence of antibiotics and then measuring susceptibility. […] Urine specimens were obtained from patients presenting with UTI-like symptoms to 37 urology clinics. The odds of resistance were estimated for 18 antibiotics relative to increasing numbers of bacterial species in a specimen.
The following study combines data from two studies of antibiotic resistance patterns in elderly patients presenting with symptoms consistent with a UTI. […] All subjects met the following inclusion and exclusion criteria. Inclusion criteria included: symptoms of acute cystitis, complicated UTI, persistent UTI, recurrent UTI, prostatitis, pyelonephritis, interstitial cystitis (at any age), symptoms of other conditions at years of age, specimen volumes sufficient to permit urine culture and Multiplex Polymerase Chain Reaction (M-PCR) combined with Pooled Antibiotic Sensitivity Testing (P-AST), patient informed consented, documented times at which the specimens were collected and stabilized with boric acid in grey-top tubes. Exclusion criteria included prior participation in this study, antibiotics taken for any reason other than UTI at the time of enrollment, chronic (≥10 days) indwelling catheters, self-catheterization, and urinary diversion.
(§6) The Pooled Antibiotic Sensitivity Test (P-AST) is permitting the organisms identified to grow in the presence of antibiotics and measuring the minimum concentration of antibiotic to inhibit growth. Antibiotic susceptibility testing is performed when at least a single organism within a pool of organisms reaches a certain threshold, (e.g., at least 3,000 cells/ml, at least 5,000 cells/ml, at least 10,000 cells/ml, etc.) and can grow in the presence of the antibiotic in the assay within the time of testing. […] These pools of organism(s) are inoculated into growth medium then placed onto an antibiotic laden “spec plate” that is then incubated and analyzed for growth. The breakpoints are derived from the CLSI breakpoints.
Experiment [4] deals with Coagulase-negative Staphylococcus (CoNS) and E. faecalis. The experiment is described as follows: P-AST species-pair interaction on antibiotic resistance (logistic regression, HSAP/UP). Type of experiment: cell-based, Coagulase negative staphylococci; Enterococcus faecalis. To be noted: CoNS and E. faecalis together v. expected from each species alone (HSAP/UP). The procedure:
as §1, §2

Experiment [5] has as its system Coagulase-negative Staphylococcus (CoNS) and K. pneumoniae. Described as above. Type of experiment: cell-based, Coagulase negative staphylococci; Klebsiella pneumoniae. The conditions noted are these: CoNS and K. pneumoniae together v. expected from each species alone (HSAP/UP). On the procedure: as §1, §3
Interactions between pairs of bacterial species were investigated using a logistic regression model to predict resistance in the presence of specific bacterial species. […]

Experiment [6] relates to Coagulase-negative Staphylococcus (CoNS) and S. agalactiae. The conditions noted are these: CoNS and S. agalactiae together v. expected from each species alone (HSAP/UP).
Procedure: as §6
P-AST was performed by aliquoting 1 mL of patient urine specimen into a 1.7 mL microcentrifuge tube. After centrifugation, the supernatant was aspirated and discarded, leaving approximately 100 or 50 μL (minimum volume left above pellet created from centrifugation) of patient sample in the microcentrifuge tube. One mL of Mueller Hinton Growth Media was then aliquoted into the patient sample in the microcentrifuge tube and the tubes were incubated at 35° C. in a non-CO2 incubator for 6 hours. […] Those samples that reached a minimum threshold of 10,000 cells/mL were then diluted by aliquoting 0.5 mL of sample into a 50 mL conical tube containing Mueller Hinton Growth Media (in this example, the dilution was 1:60, e.g., 500 μL was added to 29.5 mL). 96-well plates pre-loaded with antibiotics were then inoculated with diluted samples and incubated along with control plates for 12-16 hours at 35° C. in a single layer. Optical density of samples was then read on a DensiCHEK plate reader. The DensiCHEK instrument is used to measure the concentration of turbid samples considered positive because PCR-ID result was >=10,000 cells/mL. The turbid samples were diluted/normalized to the same concentration and then added to a volume of liquid, e.g., 29.5 mL of liquid MH-media. A spectrophotometer (plate reader) is used to measure optical density of the samples in wells of antibiotics and inoculum in order to determine if there is growth in a well.
Interactions between pairs of bacterial species were investigated using a logistic regression model to predict resistance in the presence of specific bacterial species. Bacterial species that tested positive in at least 30 samples were considered in the regression model: these 16 species were A. schaalii, A. urinae, A. omnicolens, CoNS, C. riegelii, E. faecalis, E. coli, K. oxytoca, K. pneumoniae, M. morganii, P. mirabilis, P. aeruginosa, S. aureus, S. agalactiae, U. urealyticum, VGS. […]
The test system of experiment [7] is E. coli and K. pneumoniae. Description: P-AST species-pair interaction on antibiotic resistance (logistic regression, HSAP/UP). Type of experiment: cell-based, Escherichia coli; Klebsiella pneumoniae. The procedure:
as §1, §2

The test system of the next experiment is E. coli and P. mirabilis. The description is as above. Type of experiment: cell-based, Escherichia coli; Proteus mirabilis. To be noted: E. coli and P. mirabilis together v. expected from each species alone (HSAP/UP). On the procedure: as §1, §3, §4, §5
Where [8] appears, read: antibiotic 1 μg/mL, liquid medium.
[9] abbreviates: antibiotic 2 μg/mL, liquid medium.
[10] abbreviates: antibiotic 4 μg/mL, liquid medium.
The mark [11] stands for this setting: antibiotic 8 μg/mL, liquid medium.
The mark [12] stands for this setting: antibiotic 16 μg/mL, liquid medium.
[13] abbreviates: antibiotic 32 μg/mL, liquid medium.

Entries after “also recorded” stand apart in the source; their conditions may differ.

As for `CO/N=C(\C(=O)N[C@@H]1C(=O)N2C(C(=O)[O-])=C(C[N+]3(C)CCCC3)CS[C@H]12)c1csc(N)n1` [Cefepime, cefepime], the “change in antibiotic resistance of the pair of organisms” value (from here on “change in antibiotic resistance”) in the experiment on E. coli and K. oxytoca is “decrease in resistance; also recorded: decreased odds of resistance”; in experiment [1], “decrease in resistance; also recorded: decreased odds of resistance”. Moreover, the “Blanked (OD600 minus Na-Azide well)” value in experiment [2] (setting [8]) amounted to 0.1959; in experiment [2] (setting [9]), 0.1970; in [2] (setting [10]), 0.1960; in experiment [2] (setting [11]), 0.1947; in [2] (setting [12]), 0.1866; in [2] (setting [13]) it was 0.1824. Also, the “Mean (OD600)” value in [2] (setting [8]) is 0.2416; in experiment [2] (setting [9]), 0.2427; in [2] (setting [10]) it was 0.2417; in experiment [2] (setting [11]) it was 0.2404; in experiment [2] (setting [12]), 0.2323; in [2] (setting [13]), 0.2281.
As for gentamicin, in experiment [3], the “Odds Ratio of Resistance Polymicrobial v. Monomicrobial” value is 1.17 (0.90, 1.51) and the “Odds Ratio of Resistance for Each Additional Species” value was 1.01 (0.92, 1.11). Further, the “change in antibiotic resistance” value in experiment [4] is “decrease in resistance; also recorded: decreased odds of resistance”. For the same compound, in experiment [5], the “change in antibiotic resistance” value is on record as “decrease in resistance; also recorded: decreased odds of resistance”. In [2] (setting [10]), the “Blanked (OD600 minus Na-Azide well)” value was 0.0158 and the “Mean (OD600)” value is 0.0615. Further, in experiment [2] (setting [12]), the “Blanked (OD600 minus Na-Azide well)” value was −0.0031 and the “Mean (OD600)” value was found to be 0.0426. Besides, in experiment [2] (antibiotic concentration 4), the “Blanked (OD reading)” value came out at 0.0158, the “Mean (OD reading)” value turned out to be 0.0615 and the “Result (Resistant/Sensitive)” value is on record as “S (Any OD measurement less than this threshold was designated Sensitive (S))”. In addition, in [2] (antibiotic concentration 16), the “Blanked (OD reading)” value is −0.0031, the “Mean (OD reading)” value worked out at 0.0426 and the “Result (Resistant/Sensitive)” value is “S (Any OD measurement less than this threshold was designated Sensitive (S))”. Further, the “overall sensitivity of the bacteria in the sample to the antibiotic (in words)” value in experiment [2] (liquid medium, Example 4 sample) is given as “sensitive”. For the same compound, the “change in antibiotic resistance” value in experiment [6] was “decrease in resistance; also recorded: decreased odds of resistance”.
For the compound `N[C@@H](C(=O)N[C@@H]1C(=O)N2C(C(=O)O)=C(Cl)CS[C@H]12)c1ccccc1` [Cefaclor, cefaclor], the “change in antibiotic resistance” value in [7] (E. coli and K. pneumoniae together v. expected from each species alone (HSAP/UP)) was “increased odds of resistance; also recorded: higher resistance; also recorded: increased the probability of antibiotic resistance; also recorded: increase in resistance”; with E. coli and P. mirabilis it was “decrease in resistance; also recorded: decreased odds of resistance”. The “resistance rate of the combination compared with each species alone” value in experiment [7] (predicted probabilities, FIG. 1, HSAP model) is given as “higher than either E. coli or K. pneumoniae alone”. For the same compound, the “Blanked (OD600 minus Na-Azide well)” value is on record as 0.1875 in [2] (setting [11]) and 0.0143 in experiment [2] (setting [13]). In addition, the entries for the “Mean (OD600)” value in [2] (setting [11]) and in experiment [2] (setting [13]) were 0.2332 and 0.0600, respectively.
